Experimental data published in US9464064B2, “HCV helicase inhibitors and methods of use thereof” (University of Kansas, priority 2011, dated 2016).
Where two headings read alike, the source gives them in different places.

Key:
[1] = system: HCV RLuc subgenomic replicon (genotype 1b) in Huh-7.5 cells; assay: HCV subgenomic replicon assay (Renilla luciferase); format: cell-based, hepatitis C virus; settings: for inhibition at 10 µM: Hepatitis C virus; for ability to decrease the amount of HCV RNA present in the cultures: 10 μM
Source text: An HCV Renilla luciferase reporter construct (HCV RLuc; Huang, et al. (2006) Hepatology 43:81-90) was used to measure the effect of each compound on cellular HCV RNA levels. In HCV RLuc, the HCV internal ribosome entry site (IRES) drives the translation of the neomycin and Renilla luciferase genes while the HCV nonstructural proteins (NS3 to NS5B) are translated from the Encephalomyocarditis virus IRES (Huang, et al. (2006) supra). The plasmid DNA was cleaved with ScaI, purified by phenol/chloroform extraction followed by ethanol precipitation, and used as template for RNA transcription using […] T7 RNA transcription kit (Ambion, Austin, Tex.). The RNA transcripts were treated with 2 U DNase I (Ambion) at 37° C. for 30 minutes, purified by acid phenol/chloroform extraction, followed by isopropanol precipitation, and suspended in diethylpyrocarbonate-treated water. RNA concentration was determined by spectrophotometry by measuring the A260. RNA integrity and size was checked on 1% agarose gel. Transcribed RNA was stored in aliquots at −80° C. until needed.
Huh-7.5 cells were transfected with HCV RNA by electroporation. Briefly, subconfluent Huh7.5 cells were trypsinized, suspended in complete growth medium, and centrifuged at 1,000×g for 5 minutes at 4° C. The cell pellets were then washed twice with ice-cold phosphate-buffered saline (PBS) and suspended at 1.75×10^7 cells/mL in ice-cold PBS. Replicon RNA (5 μg) was mixed with 0.4 mL of cell suspension and transferred to 2 mm gap width electroporation cuvette (EPPENDORF AG, Germany) and pulsed 5 times for 99 μsec at 820 V over 1.1 sec intervals using the ECM 830 electroporator instrument (BTX Harvard Apparatus, Holliston, Mass.). After a 5 minute recovery period at room temperature, cells were transferred to 10 ml complete growth medium, and seeded into 10 cm diameter cell culture dishes. Twenty-four hours after transfection, the medium was replaced with fresh complete DMEM supplemented with 1 mg/ml geneticin (Invitrogen) and the medium was replaced every three to four days with fresh medium containing 1 mg/mL geneticin. Geneticin-resistant colonies were selected for a period of two weeks and expanded in the presence of 250 μg/mL geneticin.
HCV RLuc replicon cells were seeded at a density of 10×10^3 cells per well in 96-well plates and incubated for 4-5 hours to allow the cells to attach to the plate. The compounds dissolved in dimethyl sulfoxide (DMSO) were added at a final concentration of 10 μM (DMSO solvent final concentration was 0.5%) and the cells were incubated for 72 hours at 37° C. under 5% CO2 atmosphere. The effects of compounds on HCV replication were then assessed by measuring the Renilla luciferase activity in compound-treated versus DMSO-treated cells. At the end of the incubation period, the medium was aspirated and the cells were washed with 1×PBS. The Renilla luciferase reporter gene assay was performed using the Renilla luciferase assay kit (PROMEGA, Madison, Wis.) according to the manufacturer's instructions. Briefly, the cells were lysed by addition of 50 μL of 1× Renilla luciferase lysis buffer followed by two cycles of freeze/thaw. The luciferase activity content of the lysate was measured with a FLUOSTAR Omega microplate reader instrument (BMG Labtech, Germany) after injecting 50 μL of luciferase substrate and reading for 5 seconds.
To determine if the above identified compounds might be useful as HCV antiviral agents, they were added to cells harboring HCV subgenomic RNA replicon. The HCV replicon chosen was derived from the same HCV strain (genotype 1b) as the NS3 protein used for screening and enzyme assays. […] 75:4614-4624; Blight, et al. (2002) J. Virol. 76:13001-13014). […]

[2] = target: T1, E. coli SSB-Cy5-dT15 complex (Escherichia coli, UniProt P0AGE0); assay: Escherichia coli SSB Cy5-dT15 binding assay (fluorescence polarization); settings: for IC50: disruption of Cy5-dT15-SSB complex, read-out: Cy5-dT15-SSB Binding IC50; for inhibition at 100 µM: read-out: SSB % Displaced @ 100 μM; for EC50: read-out: SSB EC50
T1 construct: purchased Promega
T1 sequence (P0AGE0 2-178, one chain of several): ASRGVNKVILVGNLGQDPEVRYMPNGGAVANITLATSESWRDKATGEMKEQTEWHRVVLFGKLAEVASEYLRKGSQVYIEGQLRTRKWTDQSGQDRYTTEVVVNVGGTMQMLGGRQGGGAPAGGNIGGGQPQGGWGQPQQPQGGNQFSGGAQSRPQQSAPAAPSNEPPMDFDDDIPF
Experimental: The Escherichia coli SSB assay was performed in a total volume of 20.2 μl in 384-well, flat-bottom, low volume, black microplates (Greiner Bio-One). First, 20 μl of a assay solution (5 nM Cy5-[…]-3′ (Cy5-dT15, SEQ ID NO:5), 20 nM E. coli SSB (Promega), 25 mM MOPS, pH 7.5, 1.25 mM MgCl2, 0.0025 mg/ml BSA, 0.005% (v/v) TWEEN 20 and 0.025 mM DTT) was dispensed in each well, then 0.2 μl of dimethylsulfoxide (DMSO) or compound dissolved in DMSO was added by pin transfer, such that the final concentration of DMSO was 1% (v/v) in each assay.
For IC50 determination, assays were performed with 60 μl total volume in black flat bottomed 384-well microplates (Corning). First, 3.0 μl of DMSO or compound dissolved in DMSO was added, such that the final concentration of DMSO was 5% (v/v) in each assay. Then 57 μl of a assay solution (5 nM Cy5-dT15, 20 nM SSB, 25 mM MOPS, pH 7.5, 1.25 mM MgCl2, 0.0025 mg/ml BSA, 0.005% (v/v) TWEEN 20 and 0.025 mM DTT) was dispensed in each well. Polarization was monitored with a TECAN Infinite M1000 PRO multi-mode microplate reader by exciting at 635 nm (5 nm bandwidth) and measuring total fluorescence intensity, parallel and perpendicular polarized light at 667 nm (20 nm bandwidth).

MBHA DNA substrate = assay: Modified FID assay, SYBR Green I; format: binding; settings: for DNA binding (%): SYBR Green I-FID, average (±SD) percent bound at 100 μM
Experimental: A modified FID assay, in which ethidium bromide was replaced with SYBR Green I (Invitrogen), was used to estimate a compounds affinity for the MBHA substrate. Reactions were performed as described above except that the DNA substrate was present at 0.32 μM, ethidium bromide was absent, and SYBER Green was present at (0.68 μM). Data were normalized as described above and fit to concentration-response equation using GraphPad Prism software. Titrations with each compound were performed in triplicate, and EC50 values from three independent titrations are reported ±standard deviations.

[3] = Huh7.5, 10 μM, read-out: Replicon (% Inhibition @ 10 μM)
[4] = SYBR Green, read-out: FID (SG) EC50 (converted)
[5] = Huh7.5, 10 μM compound, triplicate, average ± SD, read-out: HCV replication (% Inh.)
[6] = FID, mean ± SD, read-out: DNA Binding (SYBR Green I) EC50

| Compound | inhibition at 10 µM [1, 3] [%] | IC50 [2] [µM] | inhibition at 100 µM [2] [%] | EC50 [2] [µM] | FID (SG) % Displaced @ 100 μM (MBHA DNA substrate; SYBR Green) [%] | EC50 (MBHA DNA substrate; [4]) [µM] | inhibition at 10 µM [1, 5] [%] | DNA binding (%) (MBHA DNA substrate) | EC50 (MBHA DNA substrate; [6]) [µM] | ability to decrease the amount of HCV RNA present in the cultures [1] | fold weaker DNA binding than potency in MBHA (MBHA DNA substrate; DNA binding versus MBHA IC50) [fold] |
| --- | --- | --- | --- | --- | --- | --- | --- | --- | --- | --- | --- |
| Cc1ccc2nc(-c3ccc4nc(-c5ccc(NC(=S)Nc6ccccc6)cc5)sc4c3)sc2c1S(=O)(=O)O.N [Compound 50] | 9 ± 9 | 7 ± 1 | 98 | 7 | 76 ± 9 | 30 |  |  |  |  |  |
| Cc1ccc2nc(-c3ccc4nc(-c5ccc(NC(=O)Nc6ccc(C(F)(F)F)cc6)cc5)sc4c3)sc2c1S(=O)(=O)O.N [Compound 47] | 7 ± 39 | 15 ± 3 | 91 | 15 | 84 ± 22 | 18 |  |  |  |  |  |
| Cc1ccc2nc(-c3ccc4nc(-c5ccc(NC(=O)c6cccc(C(F)(F)F)c6)cc5)sc4c3)sc2c1S(=O)(=O)O [Compound 20, 6-methyl-2′-(4-(3-(trifluoromethyl)benzamido)phenyl)-[2,6′-bibenzo[d]thiazole]-7-sulfonic acid] | 41 ± 8 |  | 23 | > 100 | 46 ± 10 | > 100 | 41 ± 8 | 46 ± 10 |  |  |  |
| Cc1ccc2nc(-c3ccc4nc(-c5ccc(NC(=O)c6c(F)cccc6C(F)(F)F)cc5)sc4c3)sc2c1S(=O)(=O)O [Compound 21, 2′-(4-(2-fluoro-6-(trifluoromethyl)benzamido)phenyl)-6-methyl-[2,6′-bibenzo[d]thiazole]-7-sulfonic acid] | 55 ± 7 | 13 ± 1 | 96 | 13 ± 1 | 66 ± 40 | 64 ± 34 | 55 ± 7 | 66 ± 40 |  |  |  |
| Cc1ccc2nc(-c3ccc(NC(=O)c4ccc(NC(=O)c5ccc(N)cc5)cc4)cc3)sc2c1S(=O)(=O)O.N [Compound 46] | -42 ± 26 | 17 ± 5 | 94 | 17 | 21 | > 100 |  |  |  |  |  |
| Cc1ccc2nc(-c3ccc4nc(-c5ccc(NS(=O)(=O)c6ccc(C(F)(F)F)cc6)cc5)sc4c3)sc2c1S(=O)(=O)O | -7 ± 14 |  |  |  |  |  |  |  |  |  |  |
| Cc1ccc(C(=O)Nc2ccc(-c3nc4ccc(-c5nc6ccc(C)c(S(=O)(=O)O)c6s5)cc4s3)cc2)cc1 [Compound 11, 6-methyl-2′-(4-(4-methylbenzamido)phenyl)-[2,6′-bibenzo[d]thiazole]-7-sulfonic acid] | 52 ± 12 | 5 ± 2 | 96 | 5 ± 2 | 50 ± 15 | > 100 | 52 ± 12 | 50 ± 15 | > 100 |  |  |
| Cc1ccc2nc(-c3ccc(NC(=O)c4ccc(NC(=S)Nc5ccccc5)cc4)cc3)sc2c1S(=O)(=O)O.N [Compound 43] | -13 ± 2 | 23 ± 5 | 93 | 23 | 37 ± 4 | > 100 |  |  |  |  |  |
| Cc1ccc2nc(-c3ccc4nc(-c5ccc6nc(-c7ccc(N)cc7)sc6c5)sc4c3)sc2c1S(=O)(=O)O [Compound P3, 2″-(4-aminophenyl)-6-methyl-[2,6′:2′,6″-terbenzo[d]thiazole]-7-sulfonic acid] |  |  |  |  |  |  |  |  |  | showed any ability to decrease the amount of HCV RNA present in the cultures |  |
| Cc1ccc2nc(-c3ccc4nc(NC(=O)c5ccc6ncoc6c5)sc4c3)sc2c1 | 90 ± 35 |  |  |  |  |  |  |  |  |  |  |
| Cc1ccc2nc(-c3ccc4nc(-c5ccc(NC(=O)Nc6ccc(Cl)cc6)cc5)sc4c3)sc2c1S(=O)(=O)O [Compound 54] | 35 ± 28 | 5 ± 1 | 94 | 5 | 74 ± 4 | 8 |  |  |  |  |  |
| Cc1ccc2nc(-c3ccc(NC(=O)c4ccc(N)cc4)cc3)sc2c1S(=O)(=O)O | 21 ± 29 |  |  |  |  |  |  |  |  |  |  |
| Cc1ccc2nc(-c3ccc4nc(-c5ccc(NC(=O)c6ccncc6)cc5)sc4c3)sc2c1S(=O)(=O)O [Compound 32, 2′-(4-(isonicotinamido)phenyl)-6-methyl-[2,6′-bibenzo[d]thiazole]-7-sulfonic acid] | 59 ± 13 | 55 ± 20 | 63 | 55 | 19 ± 7 | > 100 | 59 ± 13 | 19 ± 7 |  |  |  |
| Cc1ccc2nc(-c3ccc(NC(=S)Nc4ccccc4Br)cc3)sc2c1 | 80 ± 17 |  |  |  |  |  |  |  |  |  |  |
| Cc1ccc2nc(-c3ccc4nc(-c5ccc(N)cc5)sc4c3)sc2c1S(=O)(=O)O [Compound P2a, 2′-(4-aminophenyl)-6-methyl-[2,6′-bibenzo[d]thiazole]-7-sulfonic acid] |  | 2 |  |  |  |  |  |  |  |  |  |
| Cc1ccc2nc(-c3ccc(NC(=O)c4ccc(NS(=O)(=O)c5ccccc5)cc4)cc3)sc2c1S(=O)(=O)O | -73 ± 50 |  | 61 | > 100 |  |  |  |  |  |  |  |
| Cc1ccc2nc(-c3ccc4nc(-c5ccc6nc(-c7ccc8nc(-c9ccc(N)cc9)sc8c7)sc6c5)sc4c3)sc2c1S(=O)(=O)O [Compound P4, 2′″-(4-aminophenyl)-6-methyl-[2,6′:2″,6′″-quaterbenzo[d]thiazole]-7-sulfonic acid] |  |  |  |  |  |  |  |  | 15 ± 8 | showed any ability to decrease the amount of HCV RNA present in the cultures | 17 |
| Cc1ccc2nc(-c3ccc(NC(=O)c4ccc(C(F)(F)F)cc4)cc3)sc2c1S(=O)(=O)O | 11 ± 14 |  |  |  |  |  |  |  |  |  |  |
| Cc1ccc2nc(-c3ccc4nc(-c5ccc(NC(=O)c6ccc7ncoc7c6)cc5)sc4c3)sc2c1S(=O)(=O)O | 15 ± 11 |  |  |  |  |  |  |  |  |  |  |
